According to ChEMBL document CHEMBL3885881, “DrugMatrix”:

Species on record: Rattus norvegicus
Experiment: DrugMatrix - Regimen: Daily Repeat
Assay type: toxicity, organism-based, Sprague-Dawley
Set-up: regimen Daily Repeat, gender Male, age 6-8 weeks
Details: in vivo, po, 0 mg/kg, route oral GAVAGE, dose level Control, vehicle .5 % CMC; for ABSOLUTE BASOPHIL / ABSOLUTE EOSINOPHIL / ABSOLUTE LYMPHOCYTE / ABSOLUTE MONOCYTE / ABSOLUTE SEGMENTED NEUTROPHIL / BASOPHIL / EOSINOPHIL / ERYTHROCYTE COUNT / HEMATOCRIT / HEMOGLOBIN / LEUKOCYTE COUNT / LYMPHOCYTE / MEAN CORPUSCULAR HEMOGLOBIN / MEAN CORPUSCULAR HEMOGLOBIN CONCENTRATION / MEAN CORPUSCULAR VOLUME / MONOCYTE / NEUTROPHIL / NUCLEATED RED BLOOD CELLS / PLATELET COUNT: tissue Blood; for ALANINE AMINOTRANSFERASE / ALBUMIN / ALKALINE PHOSPHATASE / ASPARTATE AMINOTRANSFERASE / BLOOD UREA NITROGEN / CARBON DIOXIDE / CHLORIDE / CHOLESTEROL / CREATINE PHOSPHOKINASE / CREATININE / GLUCOSE / LACTATE DEHYDROGENASE / LIPASE / PHOSPHORUS / POTASSIUM / SODIUM / TOTAL BILIRUBIN / TOTAL PROTEIN / URIC ACID: tissue Plasma

COc1ccccc1OCC(O)COC(N)=O (stereo unspecified) [METHOCARBAMOL]
ABSOLUTE BASOPHIL (72 h, time 3 day): 0 CELLS/uL
ABSOLUTE EOSINOPHIL (72 h, time 3 day): 171.33 CELLS/uL
ABSOLUTE LYMPHOCYTE (72 h, time 3 day): 13776.5 CELLS/uL
ABSOLUTE MONOCYTE (72 h, time 3 day): 180.83 CELLS/uL
ABSOLUTE SEGMENTED NEUTROPHIL (72 h, time 3 day): 1121.33 CELLS/uL
BASOPHIL (72 h, time 3 day): 0%
EOSINOPHIL (72 h, time 3 day): 1%
ERYTHROCYTE COUNT (72 h, time 3 day): 5.56 x10E6/uL
HEMATOCRIT (72 h, time 3 day): 34.75%
HEMOGLOBIN (72 h, time 3 day): 13.68 G/DL
LEUKOCYTE COUNT (72 h, time 3 day): 15.25 x10E3/uL
LYMPHOCYTE (72 h, time 3 day): 90.17%
MEAN CORPUSCULAR HEMOGLOBIN (72 h, time 3 day): 24.6 pg
MEAN CORPUSCULAR HEMOGLOBIN CONCENTRATION (72 h, time 3 day): 39.4 G/DL
MEAN CORPUSCULAR VOLUME (72 h, time 3 day): 62.48 fL
MONOCYTE (72 h, time 3 day): 1.17%
NEUTROPHIL (72 h, time 3 day): 7.67%
NUCLEATED RED BLOOD CELLS (72 h, time 3 day): 0 /100WBC
PLATELET COUNT (72 h, time 3 day): 1342 x10E3/uL
ALANINE AMINOTRANSFERASE (72 h, time 3 day): 49.67 u/L
ALBUMIN (72 h, time 3 day): 4.15 G/DL
ALKALINE PHOSPHATASE (72 h, time 3 day): 346.83 u/L
ASPARTATE AMINOTRANSFERASE (72 h, time 3 day): 108.17 u/L
BLOOD UREA NITROGEN (72 h, time 3 day): 17.33 mg/dL
CARBON DIOXIDE (72 h, time 3 day): 25 mmol/L
CHLORIDE (72 h, time 3 day): 100.83 MEQ/L
CHOLESTEROL (72 h, time 3 day): 66.83 mg/dL
CREATINE PHOSPHOKINASE (72 h, time 3 day): 788 u/L
CREATININE (72 h, time 3 day): 0.18 mg/dL
GLUCOSE (72 h, time 3 day): 151.67 mg/dL
LACTATE DEHYDROGENASE (72 h, time 3 day): 982.5 u/L
LIPASE (72 h, time 3 day): 10.33 u/L
PHOSPHORUS (72 h, time 3 day): 11.23 mg/dL
POTASSIUM (72 h, time 3 day): 6.37 MEQ/L
SODIUM (72 h, time 3 day): 141.02 MEQ/L
TOTAL BILIRUBIN (72 h, time 3 day): 0.18 mg/dL
TOTAL PROTEIN (72 h, time 3 day): 5.9 G/DL
URIC ACID (72 h, time 3 day): 1.8 mg/dL
ABSOLUTE BASOPHIL (120 h, time 5 day): 0 CELLS/uL
ABSOLUTE EOSINOPHIL (120 h, time 5 day): 69 CELLS/uL
ABSOLUTE LYMPHOCYTE (120 h, time 5 day): 13632.83 CELLS/uL
ABSOLUTE MONOCYTE (120 h, time 5 day): 139.83 CELLS/uL
ABSOLUTE SEGMENTED NEUTROPHIL (120 h, time 5 day): 1225 CELLS/uL
BASOPHIL (120 h, time 5 day): 0%
EOSINOPHIL (120 h, time 5 day): 0.33%
ERYTHROCYTE COUNT (120 h, time 5 day): 5.52 x10E6/uL
HEMATOCRIT (120 h, time 5 day): 33.98%
HEMOGLOBIN (120 h, time 5 day): 13.22 G/DL
LEUKOCYTE COUNT (120 h, time 5 day): 15.07 x10E3/uL
LYMPHOCYTE (120 h, time 5 day): 90.83%
MEAN CORPUSCULAR HEMOGLOBIN (120 h, time 5 day): 23.95 pg
MEAN CORPUSCULAR HEMOGLOBIN CONCENTRATION (120 h, time 5 day): 38.9 G/DL
MEAN CORPUSCULAR VOLUME (120 h, time 5 day): 61.53 fL
MONOCYTE (120 h, time 5 day): 0.83%
NEUTROPHIL (120 h, time 5 day): 8%
NUCLEATED RED BLOOD CELLS (120 h, time 5 day): 0 /100WBC
PLATELET COUNT (120 h, time 5 day): 1196 x10E3/uL
ALANINE AMINOTRANSFERASE (120 h, time 5 day): 49.17 u/L
ALBUMIN (120 h, time 5 day): 4.2 G/DL
ALKALINE PHOSPHATASE (120 h, time 5 day): 352.33 u/L
ASPARTATE AMINOTRANSFERASE (120 h, time 5 day): 89.67 u/L
BLOOD UREA NITROGEN (120 h, time 5 day): 18 mg/dL
CARBON DIOXIDE (120 h, time 5 day): 27.67 mmol/L
CHLORIDE (120 h, time 5 day): 101 MEQ/L
CHOLESTEROL (120 h, time 5 day): 72.83 mg/dL
CREATINE PHOSPHOKINASE (120 h, time 5 day): 417.5 u/L
CREATININE (120 h, time 5 day): 0.18 mg/dL
GLUCOSE (120 h, time 5 day): 150.5 mg/dL
LACTATE DEHYDROGENASE (120 h, time 5 day): 517.33 u/L
LIPASE (120 h, time 5 day): 9 u/L
PHOSPHORUS (120 h, time 5 day): 11.87 mg/dL
POTASSIUM (120 h, time 5 day): 6.57 MEQ/L
SODIUM (120 h, time 5 day): 143.62 MEQ/L
TOTAL BILIRUBIN (120 h, time 5 day): 0.2 mg/dL
TOTAL PROTEIN (120 h, time 5 day): 6.08 G/DL
URIC ACID (120 h, time 5 day): 1.45 mg/dL
